Measurements from paper PMC12808100, “The non-catalytic DNA polymerase ε subunit is an NPF motif recognition protein” (Nature Communications, 2025).

How the values were obtained:
[1] = molecular target: His6-avi-MBP-tagged POLE2; assay: Single-point nHU-MS with recombinant His6-avi-MBP-POLE2 bait, Jurkat extract; format: binding, human; settings: significant apparent affinity of endogenous prey protein for POLE2 bait; single-point nHU-MS; Figure S11
Source text: So far, our study only focused on a few hand-picked NPF motifs and studied them as short synthetic peptides. However, many other proteins may be present in the proteome that could bind to POLE2 and their putative NPF motifs are embedded in their natural structures that can greatly affect their binding properties. To investigate interactions between POLE2 and intact, full length proteins proteome-wide, we used nHU-MS experiments with recombinant His6-avi-MBP-tagged POLE2 as bait and purified His6-avi-MBP as a control. Even though we are aware that this recombinant POLE2 may bind to NPF motifs with a somewhat altered affinity, we assumed that this would affect all NPF motif-mediated interactions equally, allowing an unbiased affinity ranking of all identified partners. Single point nHU measurements were performed at 26 μM POLE2 concentration and the recovered supernatant was measured by label free proteomic MS measurements (Fig. 3A, Supplementary Figs. 8A, 9, Supplementary Data 1).
Single-point nHU experiments with protein baits were carried out nearly identically with two key modifications. First, the resin saturation step was carried out by mixing 50 μl streptavidin resin with 0.5−1 ml 50 μM biotinylated protein solution and the mixture was incubated for 1.5 h at 4 °C with constant agitation. Second, instead of using estimated bait concentrations, we measured it experimentally. An extra aliquot of resin stock was prepared alongside the nHU samples that were identically processed that were used to eluate the immobilized proteins under harsh conditions, in order to experimentally quantify the Cbait by using densitometry of Coomassie stained SDS-PAGE that included a protein calibration series. For this, 50 μl bait-saturated resin aliquots were mixed with 200 μl 4x Laemmli Sample Buffer (120 mM Tris-HCl pH 7, 8% SDS, 100 mM DTT, 32% glycerol, 0.004% bromphenol blue, 1% β-mercaptoethanol), instead of cell extract. After 15 min incubation at 95 °C, these samples were analyzed by SDS-PAGE using protein calibration standard, made from recombinant MBP. Densitometry was carried out after Coomassie staining on raw Tif images by using Fiji ImageJ 1.53c and experimental bait concentration were determined by adjusting for molecular weight differences between MBP and MBP-POLE2 constructs.
Samples were digested overnight at 37 °C.

UBE2N = molecular target: T1, UBE2N (Homo sapiens, UniProt P61088); assay: nHU-MS peptide bait, prey UBE2N; settings: FigureS2 Volcano; prey UBE2N
T1 sequence (P61088 1-152): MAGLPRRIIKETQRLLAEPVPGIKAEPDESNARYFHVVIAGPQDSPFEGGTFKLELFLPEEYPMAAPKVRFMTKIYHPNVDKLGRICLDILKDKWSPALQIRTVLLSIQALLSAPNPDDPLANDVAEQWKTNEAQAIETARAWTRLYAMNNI

EHD4 = molecular target: T2, EHD4 (Homo sapiens, UniProt Q9H223); assay: nHU-MS peptide bait, prey EHD4; settings: FigureS2 Volcano; prey EHD4
T2 sequence (Q9H223 1-541): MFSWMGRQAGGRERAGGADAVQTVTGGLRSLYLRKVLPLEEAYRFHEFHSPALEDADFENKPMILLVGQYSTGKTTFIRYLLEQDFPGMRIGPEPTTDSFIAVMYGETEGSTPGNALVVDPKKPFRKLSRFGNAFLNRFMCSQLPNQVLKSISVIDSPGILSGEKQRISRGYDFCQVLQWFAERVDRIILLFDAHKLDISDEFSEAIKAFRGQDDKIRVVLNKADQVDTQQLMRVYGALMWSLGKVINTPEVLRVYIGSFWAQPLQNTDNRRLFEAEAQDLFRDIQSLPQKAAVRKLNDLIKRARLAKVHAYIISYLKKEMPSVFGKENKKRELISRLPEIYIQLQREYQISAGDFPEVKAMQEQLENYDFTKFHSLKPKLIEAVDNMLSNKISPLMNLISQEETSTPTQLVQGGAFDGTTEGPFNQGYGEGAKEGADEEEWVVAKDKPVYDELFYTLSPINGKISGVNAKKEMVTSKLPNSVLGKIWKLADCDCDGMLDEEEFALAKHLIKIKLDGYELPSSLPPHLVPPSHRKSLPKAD

GYPC = molecular target: T3, GYPC (Homo sapiens, UniProt P04921); assay: nHU-MS peptide bait, prey GYPC; settings: FigureS2 Volcano; prey GYPC
T3 sequence (P04921 1-128): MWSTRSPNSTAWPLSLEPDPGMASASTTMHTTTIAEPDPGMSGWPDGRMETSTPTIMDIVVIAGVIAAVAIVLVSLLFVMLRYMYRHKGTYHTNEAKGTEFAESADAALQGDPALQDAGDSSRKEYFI

[2] = system: endogenous proteins of Jurkat extract; assay: Single-point nHU-MS with biotinylated NPF motif peptide baits, proteome-wide; format: binding, human; settings: FigureS2 Volcano; prey WASHC3
Source text: To identify the partners of NPF motifs, we used the native holdup (nHU) assay that was recently developed by our team (Fig. 1B). The holdup approach has been extensively used to determine equilibrium dissociation constants of transient interactions mediated by PDZ and SH3 domains, 14-3-3, and human papilloma virus E6 proteins, and even nucleic acid-protein interactions[7],[30]–[35]. In the nHU experiments, a purified bait molecule, or a control compound, is immobilized on a resin at high concentration (typically 10 μM, or higher) and these resin stocks are subsequently mixed with dilute cell extracts. […] This liquid phase contains the unbound prey molecules at near binding equilibrium that can be quantified using selective and quantitative analytical approaches, such as mass spectrometry. Therefore, proteins that interact with the bait molecule will appear to be depleted in the solvent phase and by measuring its relative concentration compared to the control nHU experiment, the degree of binding (θ) can be determined that can be converted to apparent steady-state dissociation constants, according to:1 θ=1−Ifree/Itot=Cbait/Cbait+Kapp where Itot and Ifree are the measured total and bait-depleted equilibrium mass spectrometry total ion intensities of prey proteins, Cbait is the bait molecule concentration and Kapp is the apparent dissociation constant. […]

With NSVD [WDHD1] the pKapp_sign [1] was 5.025, the “-log10P” value (UBE2N) was 4.615 and the log2FC (UBE2N) was -0.5674. For the same substance, the “-log10P” value (EHD4) was 4.524, the log2FC (EHD4) was -0.6115 and the “-log10P” value (GYPC) was 4.7052. For the same substance, the log2FC (GYPC) was -0.6216 and the log2FC [2] was -0.6642.
